Data: patent publication US11576914B2, “Drug for treating or preventing disorder caused by TGF-β signaling, and application thereof” (THE DOSHISHA, priority 2017, dated 2023)
“Also recorded” adds a separate entry of the source.

Columns and labels:
[1] = tested on: Fuchs' endothelial corneal dystrophy patient-derived immortalized corneal endothelial cells; experiment: Cell damage inhibitory effect on iFECD stimulated with TGF-β2 (phase contrast microscope); type: cell-based, human; conditions: for disorder in the corneal endothelial cells: 1 μM and 3 μM, iFECD, pretreatment, TGF-β2 stimulation; for cell damage inhibitory effect for the corneal endothelial cells: at sub-μM
Method: The medium was removed from the culture dish in which Fuchs' endothelial corneal dystrophy patient-derived immortalized corneal endothelial cells (hereinafter, referred to as disease model cells) were being cultured, and the cells were supplemented with 1×PBS (−) that was preheated to 37° C., and were washed. This operation was repeated twice. The cells were supplemented with 1×PBS (−) again and incubated for 5 minutes at 37° C. (5% CO2). After the PBS (−) was removed, the cells were supplemented with 0.05% Trypsin-EDTA (nacalai tesque, 32778-34) and incubated for 5 minutes at 37° C. (5% CO2). The cells were then suspended in a medium, and collected by centrifugation at 1500 rpm for 3 minutes. DMEM (nacalai tesque, 08456-36)+10% FBS (Biowest, S1820-500)+1% P/S (nacalai tesque, 26252-94) was used as the medium. The disease model cells were seeded in a 6-well plate at a rate of 1.5×10^5 cells per well and cultured at 37° C. (5% CO2) for 48 hours. DMEM+10% FBS+1% P/S was used as the medium.
After 48 hours, the medium was removed, and AKP-001, SB203580 (Cayman, 13067), PH-797804 (Selleck Chemicals, S2726) and VX-702 (Selleck Chemicals, 56005) were added to DMEM+2% FBS+1% P/S so that the final concentration was 0.01, 0.03, 0.1, 0.3, 1, 3, 10 and 30 μM, followed by culturing as 24-hour pretreatment. After 24 hours, the medium was removed, and AKP-001, 5B203580 (Cayman, 13067), PH-797804 (Selleck Chemicals, S2726), or VX-702 (Selleck Chemicals, S6005), together with 100 ng/ml Recombinant Human TGF-β2 (R&D systems, RND302-B2-002), were added to DMEM+2% FBS+1% P/S so that the final concentration was 0.01 μM, 0.03 μM, 0.1 μM, 0.3 μM, 1 μM, 3 μM, 10 μM, and 30 μM, followed by culturing for 24 hours. After 24 hours, cell damage was evaluated by observation with a phase contrast microscope. As a control, immortalized corneal endothelial cells that were not stimulated with TGF-β were used.

[2] = tested on: cleaved caspase-3 and PARP; experiment: Western blot of caspase 3 and PARP in iFECD stimulated with TGF-β2; type: cell-based, human; conditions: 0.1 μM; for cleaved caspase-3 and PARP expression: 100 ng/ml TGF-β2, 24 hours; for caspase activity: TGF-β2
Method: The medium was removed from the culture dish of cultured disease model cells, and the disease model cells were supplemented with 1×PBS (−) that was preheated to 37° C., followed by washing. This operation was repeated twice. The cells were supplemented with 1×PBS (−) again and incubated for 5 minutes at 37° C. (5% CO2). After the PBS (−) was removed, the cells were supplemented with 0.05% Trypsin-EDTA (nacalai tesque, 32778-34) and incubated for 5 minutes at 37° C. (5% CO2). The cells were then suspended in a medium, and collected by centrifugation at 1500 rpm for 3 minutes. Medium: DMEM (nacalai tesque, 08456-36)+10% FBS (Biowest, S1820-500)+1% P/S (nacalai tesque, 26252-94).
The Fuchs' endothelial corneal dystrophy patient-derived immortalized corneal endothelial cells were seeded in a 6-well plate at a rate of 1.5×10^5 cells per well and cultured at 37° C. (5% CO2) for 48 hours. DMEM+10% FBS+1% P/S was used as the medium. After 48 hours, the medium was removed, and SB203580 (Cayman, 13067), PH-797804 (Selleck Chemicals, S2726), VX-702 (Selleck Chemicals, 56005) and AKP-001 were added to DMEM+2% FBS+1% P/S so that all the final concentration was 0.1 μM, followed by culturing as 24-hour pretreatment.
After 24 hours, the medium was removed, and SB203580 (Cayman, 13067), PH-797804 (Selleck Chemicals, S2726), VX-702 (Selleck Chemicals, 56005) and AKP-001, together with 100 ng/ml recombinant human TGF-β2 (R & D systems, RND302-B2-002), were added to DMEM+2% FBS+1% P/S so that all the final concentration was 0.1 μM, followed by culturing for 24 hours. After 24 hours, the protein was subjected to Western blotting according to the following procedure to evaluate the effect on apoptosis.
The medium was collected on ice to collect free and dead cells as well. The solution obtained from washing the cells twice with 1×PBS (−) was also collected, followed by centrifugation of 800 g at 4° C. for 5 minutes. The supernatant was discarded to obtain precipitates. The washed cells were supplemented with a protein extraction buffer (RIPA; 50 mM Tris-HCl (pH 7.4), 150 mM NaCl, 1 mM EDTA, 0.1% SDS, 0.5% DOC, 1% NP-40) on ice to extract proteins. The precipitates from centrifuging the free and dead cells were also subsequently suspended together for extraction. The collected solution was pulverized three times for 30 seconds in cold water with a sonication device (BIORUPTOR, TOSHO DENKI) and centrifuged for 10 min at 4° C. at 15000 rpm to collect the supernatant of proteins.
Eight μg of the extracted protein was separated by SDS-PAGE and transferred onto a nitrocellulose membrane. A rabbit anti-Caspase 3 antibody (Cell Signaling, 9662), rabbit anti-PARP antibody (Cell Signaling, 9542), and mouse anti-GAPDH antibody (MBL, M171-3) were used as the primary antibodies. A peroxidase-labeled anti-rabbit antibody and anti-mouse antibody (GE Healthcare Biosciences, NA931V, NA934V) were used as the secondary antibodies. For the primary antibodies, the rabbit anti-PARP antibody was diluted 1000-fold, the rabbit anti-Caspase 3 antibody was diluted 1000-fold, and the mouse anti-GAPDH antibody was diluted 3000-fold. Further, the secondary antibody was diluted 5000-fold. Chemi Lumi ONE Ultra (Nacalai Tesque, 11644-40) was used for detection. The detected band strength was analyzed with a lumino image analyzer LAS-4000 mini (Fuji Film) and ImageQuant™ software (GE Healthcare).

corneal endothelium = experiment: Histological analysis of the corneal endothelium after instillation; type: in vivo; conditions: 10 μM into the anterior chamber, after 24 hours, positive control
Source text: Rabbits were euthanized, and then their eyes were removed and histologically analyzed. Expression of markers related to corneal endothelial functions was confirmed by immunostaining. The sclerocornea fragments were fixed with 0.5% paraformaldehyde and then blocked with 1% bovine serum albumin. As primary antibodies, ZO-1 antibody (Life Technologies) and N-cadherin antibody (BD Biosciences), which are indicators of the barrier function of corneal endothelial cells, and Na^+/K^+-ATPase antibody (MILLIPORE), which is an indicator of pump functions, were added, followed by standing at 4° C. overnight. […] Further, nuclear staining was performed using DAPI (Dojindo). To observe the cell morphology, actin was stained using Phalloidin (Life Technologies). The stained sclerocornea fragments were mounted in slide glasses and observed using a confocal fluorescence microscope (TCS SPE, Leica).
In addition, rabbits were euthanized, and then their eyes were removed. To assess cell death, the sclerocornea fragments were stained with Annexin V (Zymed Laboratories) and PI (Zymed Laboratories), fixed with 0.5% paraformaldehyde, and nuclear stained with DAPI (Dojindo). The stained sclerocornea fragments were mounted in slide glass and observed using a confocal fluorescence microscope (TCS SPE, Leica). Staurosporine (10 μM, Merck Millipore) was administered into the anterior chamber of a rabbit eyeball, and after 24 hours, it was used as a positive control.

Compound	disorder in the corneal endothelial cells [1]	cell damage inhibitory effect for the corneal endothelial cells [1]	cleaved caspase-3 and PARP expression [2]	caspase activity [2]	Annexin V and PI staining (cell death) (corneal endothelium)
CNC(=O)c1ccc(C)c(-n2c(C)cc(OCc3ccc(F)cc3F)c(Br)c2=O)c1 [PH-797804]	effectively suppressed	not observed; also recorded: No inhibitory effects	confirmed similarly	not inhibited	
NC(=O)c1ccc(N(C(N)=O)c2c(F)cccc2F)nc1-c1ccc(F)cc1F [VX-702]	effectively suppressed	not observed; also recorded: No inhibitory effects	confirmed similarly	not inhibited	
CN[C@@H]1C[C@H]2O[C@@](C)([C@@H]1OC)n1c3ccccc3c3c4c(c5c6ccccc6n2c5c31)C(=O)NC4 [staurosporine, reference compound]					Staining with Annexin V or PI was observed
